According to patent publication US20090076029A1 (Palatin Technologies, Inc., priority 2007, published 2009):

System: T1, MC1-R
T1 construct: from B-16 mouse melanoma cells (containing MC1-R); endogenous in cells; host or cells: B-16 mouse melanoma cells
Experiment: cAMP functional assay, B-16 mouse melanoma cells expressing MC1-R
Assay type: cell-based
Conditions: cAMP assay at 1 μM

With `CC(C)C[C@@H]1CN(C(=O)[C@H](N)Cc2ccc(Cl)cc2Cl)[C@@H](CCCNC(=N)N)CN1CCc1ccc2ccccc2c1` [Example 4, N-{3-[1-[2(R)-Amino-3-(2,4-dichloro-phenyl)-propionyl]-5(R)-isobutyl-4-(2-naphthalen-2-yl-ethyl)-piperazin-2(S)-yl]-propyl}-guanidine] the “functional status at MC1-R” value was “no intrinsic activity (intrinsic activity below 0.1 (10%) is classified as inactive or having no intrinsic activity)”.
